Measured values from patent publication US7811352B2, “Fertilizer compositions and methods of using” (priority 2005, dated 2010).

Legend:
[1] = test system: total soil bacteria and fungi; assay: Soil microbial population (plate count) after fertilizer application to Kentucky bluegrass turf (Example 8); details: 1.0 lb N/1000 ft^2; 24, 48 and 72 hours after application
Method: In this Example, the effect on various embodiments of the fertilizer composition on soil microbial population (bacterial and fungal) was examined. The Example compared the effect on total microbial populations 24, 48 and 72 hours after application of the fertilizer to a Kentucky bluegrass turf.
The following fertilizer compositions were used: urea, dry lysine (lysine (HCl), LIQUID LYSINE brand aqueous lysine solution (available from Archer-Daniels-Midland Company, Decatur, Ill.), a threonine cell mass, a lysine cell mass, and soy/lysine combination (a granular mixture of dry lysine and soy flour, soy flakes and soybean oil. Analysis of the threonine cell mass is presented in Table 5. The effect of the fertilizer compositions on microbial population were compared with a control plot to which no fertilizer composition was applied. The dry lysine was dissolved in water and applied by spraying on the turf plot. The fertilizer compositions were applied at a rate of 1.0 lb N/1000 ft^2 of Kentucky bluegrass turf Soil samples from the turf were analyzed for total soil bacteria and fungi by standard plate count and dilution series.

[2] = test system: ultra-dwarf Bermuda grass; assay: Phytotoxicity rating, ultra-dwarf Bermuda grass greens (Example 11); type: in vivo; details: scale 0-5, 5=worst
From the text: In this Example, the effect of a fertilizer comprising lysine on warm season turfgrass growth was examined. The effects of lysine (HCl) and LIQUID LYSINE on a common type of golf course greens quality turfgrass (ultra-dwarf Bermuda grass) were compared with those of urea and Milorganite.
Twelve fertilizer treatments comprising three concentrations of each fertilizer composition (Milorganite (N—P—K, 6-2-0), urea (N—P—K, 46-0-0), LIQUID LYSINE (N—P—K, 10-2-1), and lysine (HCl) (N—P—K, 15-2-1)) were prepared and applied to 3 replications of ultra-dwarf Bermuda grass. The lysine (HCl) was dissolved in water prior to application. Each fertilizer treatment was applied in concentrations of 0.125 lb N/1000 ft^2/week, 0.25 lb N/1000 ft^2/week and 0.75 lb N/1000 ft^2/week. The urea, LIQUID LYSINE and lysine (HCl) were applied as foliar liquids, while Milorganite was applied as a granular fertilizer. Plot size was 1 m×1 m set up as a randomized complete block. Plots were mowed at 0.125 inches before fertilizer application. Irrigation (0.15 inch) was applied following application. Plots were rated for turfgrass quality and color (scale of 1-10 where 10=dark green turf, 1=dead/brown turf, and 6=initially acceptable turf) and phytotoxicity (scale of 0-5, where 5=worst, and 2=minimally objectionable) throughout the study period. Quality, color, and phytotoxicity were measured on 2 days before application (day −2) and day 2, day 5, day 15 and day 21 after application. All data was subject to statistical analysis and significant means were determined. Average turfgrass quality ratings for the treatments are presented in Table 12 and the quality results for application rates of 0.25 lb N/1000 ft^2/week are graphically presented in FIG. 6.

[3] = test system: Moonlight Kentucky bluegrass; assay: Turfgrass quality rating, Kentucky bluegrass lawn (Example 17); type: in vivo
From the text: In this Example, the effect of a fertilizer comprising lysine on cool season lawn variety turfgrass growth was examined. The effects of lysine (HCl) and LIQUID LYSINE on a common variety of law turfgrass (Moonlight Kentucky bluegrass) were compared with those of urea, Milorganite and a blended fertilizer (a blend of methylene urea and urea in an approximately 1:1 ratio).
Fifteen fertilizer treatments comprising three concentrations of each fertilizer composition (Milorganite N—P—K, 6-2-0), urea (N—P—K, 46-0-0), a blended fertilizer, LIQUID LYSINE (N—P—K, 10-2-1), and lysine (HCl) (N—P—K, 15-2-1)) were prepared and applied to 3 replications of newly established “Moonlight” variety Kentucky bluegrass lawn turfgrass. The urea, lysine (HCl), and LIQUID LYSINE were dissolved/suspended in 1.5 gal water prior to application. […], […], The urea, LIQUID LYSINE and lysine (HCl) were applied as foliar liquids, while Milorganite and the blended fertilizer were applied as granular fertilizers. Plot size was 4 ft×8 ft laid out in a replicated complete block design. Plots were mowed at 2.0 inches before fertilizer application and mowed two times per week to 2.0 inch height. Grass clippings were not removed from the plots and no supplemental cultural maintenance or pest management was applied. Irrigation (0.15 inch) was applied following application and thereafter only when necessary to insure survival of the turf. Plots were rated for turfgrass quality (scale of 1-9 where 9=dark green turf, 1=dead/brown turf, and 6=minimally acceptable turf) and phytotoxic injury (scale of 0-9 where 9=significant foliar injury and 2=minimally objectionable foliar injury) throughout the study period. Quality was measured prior to application (day 0) and day 37, day 70 and day 95 after application. Injury was measured on day 37 and day 70 after application. In addition, blade density of the grass was measured on day 70 after application (scale of 1-9, where 9=very dense turf, 1=low density turf). All data was subject to statistical analysis and significant means were determined.

[4] = Weekly Rate 0.125 lbs N/1000 ft^2, Day 2
[5] = Weekly Rate 0.125 lbs N/1000 ft^2, Day 5
[6] = Weekly Rate 0.125 lbs N/1000 ft^2, Day 15
[7] = Weekly Rate 0.125 lbs N/1000 ft^2, Day 21
[8] = Weekly Rate 0.125 lbs N/1000 ft^2, Day −2 (before application)
[9] = Weekly Rate 0.25 lbs N/1000 ft^2, Day 2
[10] = Weekly Rate 0.25 lbs N/1000 ft^2, Day 5
[11] = Weekly Rate 0.25 lbs N/1000 ft^2, Day 15
[12] = Weekly Rate 0.25 lbs N/1000 ft^2, Day 21
[13] = Weekly Rate 0.25 lbs N/1000 ft^2, Day −2 (before application)
[14] = Weekly Rate 0.75 lbs N/1000 ft^2, Day 2
[15] = Weekly Rate 0.75 lbs N/1000 ft^2, Day 5
[16] = Weekly Rate 0.75 lbs N/1000 ft^2, Day 15
[17] = Weekly Rate 0.75 lbs N/1000 ft^2, Day 21
[18] = Weekly Rate 0.75 lbs N/1000 ft^2, Day −2 (before application)
[19] = Weekly Rate 0.5 lbs N/1000 ft^2, Day 0
[20] = Weekly Rate 0.5 lbs N/1000 ft^2, Day 37
[21] = Weekly Rate 0.5 lbs N/1000 ft^2, Day 70
[22] = Weekly Rate 0.5 lbs N/1000 ft^2, Day 95
[23] = Weekly Rate 1.0 lbs N/1000 ft^2, Day 0
[24] = Weekly Rate 1.0 lbs N/1000 ft^2, Day 37
[25] = Weekly Rate 1.0 lbs N/1000 ft^2, Day 70
[26] = Weekly Rate 1.0 lbs N/1000 ft^2, Day 95
[27] = Weekly Rate 3.0 lbs N/1000 ft^2, Day 0
[28] = Weekly Rate 3.0 lbs N/1000 ft^2, Day 37
[29] = Weekly Rate 3.0 lbs N/1000 ft^2, Day 70
[30] = Weekly Rate 3.0 lbs N/1000 ft^2, Day 95

Row | Structure (SMILES) | soil microbial populations compared with controls [1] | Phytotoxicity - Dwarf Bermuda Grass [2, 4] | Phytotoxicity - Dwarf Bermuda Grass [2, 5] | Phytotoxicity - Dwarf Bermuda Grass [2, 6] | Phytotoxicity - Dwarf Bermuda Grass [2, 7] | Phytotoxicity - Dwarf Bermuda Grass [2, 8] | Phytotoxicity - Dwarf Bermuda Grass [2, 9] | Phytotoxicity - Dwarf Bermuda Grass [2, 10] | Phytotoxicity - Dwarf Bermuda Grass [2, 11] | Phytotoxicity - Dwarf Bermuda Grass [2, 12] | Phytotoxicity - Dwarf Bermuda Grass [2, 13] | Phytotoxicity - Dwarf Bermuda Grass [2, 14] | Phytotoxicity - Dwarf Bermuda Grass [2, 15] | Phytotoxicity - Dwarf Bermuda Grass [2, 16] | Phytotoxicity - Dwarf Bermuda Grass [2, 17] | Phytotoxicity - Dwarf Bermuda Grass [2, 18] | Quality Rating - Kentucky Bluegrass [3, 19] | Quality Rating - Kentucky Bluegrass [3, 20] [b] | Quality Rating - Kentucky Bluegrass [3, 21] [cd] | Quality Rating - Kentucky Bluegrass [3, 22] [ab] | other results
1 | NC(N)=O [Urea, urea, reference compound] | did not significantly differ | 0 | 0 | 0 | 0 | 0 | 0 | 0 | 0 | 0 | 0 | 0 | 0 | 0 | 0 | 0 | 4.7de | 6.0 | 4.3 | 4.3 | Quality Rating - Kentucky Bluegrass [3, 23]: 5.0cde; Quality Rating - Kentucky Bluegrass [3, 24]: 7.7a; Quality Rating - Kentucky Bluegrass [3, 25]: 5.3bc; Quality Rating - Kentucky Bluegrass [3, 26]: 6.3a; Quality Rating - Kentucky Bluegrass [3, 27]: 6.3ab; Quality Rating - Kentucky Bluegrass [3, 28]: 8.0a; Quality Rating - Kentucky Bluegrass [3, 29]: 6.7a; Quality Rating - Kentucky Bluegrass [3, 30]: 4.3ab
2 | Cl.NCCCC[C@H](N)C(=O)O [Lys (HCl) 15% N, L-lysine monohydrochloride] | did not significantly differ | 0 | 0 | 0 | 0 | 0 | 0 | 0 | 0 | 0 | 0 | 0 | 0 | 0 | 0 | 0 | 5.0cde | 5.3 | 4.3 | 5.7 | Quality Rating - Kentucky Bluegrass [3, 23]: 5.3bcd; Quality Rating - Kentucky Bluegrass [3, 24]: 7.3a; Quality Rating - Kentucky Bluegrass [3, 25]: 6.0ab; Quality Rating - Kentucky Bluegrass [3, 26]: 6.0a; Quality Rating - Kentucky Bluegrass [3, 27]: 6.3ab; Quality Rating - Kentucky Bluegrass [3, 28]: 8.0a; Quality Rating - Kentucky Bluegrass [3, 29]: 6.7a; Quality Rating - Kentucky Bluegrass [3, 30]: 5.7ab
